Assay results as given in patent publication US20120058208A1 (SYNTHITE INDUSTRIES LTD., priority 2010, published 2012).

What was measured:
[1] = given dose 50 mg/kg; adjuvant given with curcumin; cited from earlier work
HCT-116 human xenograft = assay: In vivo anti-cancer activity in human colorectal (HCT-116) xenograft model in SCID mice
Method: Human colorectal (HCT-116) xenograft model in SCID mice
Five-week-old female mice purchased from the Advanced Centre for Treatment, Research and Education in Cancer (ACTREC) were used for in vivo experiments. The Institutional Animal Ethics Committee (IAEC) approved the in vivo study. Animals were injected with 1×10^6 HCT-116 cells subcutaneously in the flank region. Animals were monitored daily during the period between inoculation and palpable tumor growth. Tumor size was measured with a digital Vernier caliper and tumor-bearing mice were randomized into control and treatment groups (n=8), when the tumor volume was attained ˜100 mm^3. […] Tumor volume and was body weight was measured twice weekly. The following formula was used to calculate the tumor volume: Tumor volume=[…]. Percent reduction in tumor growth was calculated with respect to the Vehicle treated group.

SMILES | enhancement of the bioavailability of curcumin [1] [%] | % Redn. (percent reduction in tumor growth with respect to the Vehicle treated group) (HCT-116 human xenograft; 150 mg/kg oral once daily for 28 days) [%] | Tumor volume, Mean ± SE, Day 0 (HCT-116 human xenograft; 150 mg/kg oral once daily, Day 0) [mm^3] | Tumor volume, Mean ± SE, Day 4 (HCT-116 human xenograft; 150 mg/kg oral once daily, Day 4) [mm^3] | Tumor volume, Mean ± SE, Day 8 (HCT-116 human xenograft; 150 mg/kg oral once daily, Day 8) [mm^3] | Tumor volume, Mean ± SE, Day 12 (HCT-116 human xenograft; 150 mg/kg oral once daily, Day 12) [mm^3] | Tumor volume, Mean ± SE, Day 16 (HCT-116 human xenograft; 150 mg/kg oral once daily, Day 16) [mm^3] | Tumor volume, Mean ± SE, Day 19 (HCT-116 human xenograft; 150 mg/kg oral once daily, Day 19) [mm^3] | Tumor volume, Mean ± SE, Day 22 (HCT-116 human xenograft; 150 mg/kg oral once daily, Day 22) [mm^3] | Tumor volume, Mean ± SE, Day 26 (HCT-116 human xenograft; 150 mg/kg oral once daily, Day 26) [mm^3] | Tumor volume, Mean ± SE, Day 29 (HCT-116 human xenograft; 150 mg/kg oral once daily, Day 29) [mm^3]
O=C(/C=C/C=C/c1ccc2c(c1)OCO2)N1CCCCC1 [piperine] | 33 | – | – | – | – | – | – | – | – | – | –
CCCCC[C@H](O)CC(=O)CCc1ccc(O)c(OC)c1 [gingerol] | 43 | – | – | – | – | – | – | – | – | – | –
O=C(CCCCCCC(=O)Nc1ccccc1)NO [Vorinostat] | – | 47 | 131.6 ± 23.1 | 236.6 ± 42.7 | 334.4 ± 52.3 | 460.6 ± 76.0 | 544.6 ± 79.1 | 669.6 ± 107.0 | 726.0 ± 120.8 | 916.6 ± 157.9 | 979.1 ± 157.2
